What was measured:
[1] = tested on: red rice; conditions: fields of transgenic rice bearing the bar gene (Oard et al. 2000); cited from earlier work
[2] = tested on: non-transformed tobacco plants; experiment: Seed germination in the presence of kanamycin or imazapyr (tobacco); type: in vivo, Nicotiana tabacum; conditions: tobacco seeds on Nitsch agar medium; sensitive seedlings stop growing within 10 days
Description: Surface sterilized seeds of wild type, the backcross of primary transformants with wild type T0 (=BC), T1, T2, and T3 tobacco plants were planted on either medium. Sensitive seedlings were identified as those that stopped growing within 10 days, forming only short roots and cotyledons, while resistant seedlings grew well, forming long roots and true leaves, continuing their growth past 10 days. The segregation ratio of wild type to TM of each line was calculated. Resistant/dwarfed seedlings were grown to maturity in soil and the plants were analyzed for AHAS resistance (phenotype) and for ahas^R and Δgai insert by PCR (genotype), as described herein above.
Competition of TM transgenics with the wild type, and self competition of each alone: The transgenic TM tobacco was used to simulate a TM introgressed hybrid or transgenic volunteer crop, and the wild type tobacco was used to simulate a non-transgenic crop, weed, or wild plant. The competitive interactions between the transgenic and wild type plants were assessed in two separate internally replicated greenhouse experiments. In both experiments, seeds obtained from the first backcross T1 (═BC1) of a representative TM line T1-7 (pollen recipient) and wild type (pollen donor) were used to grow mixed TM and wild type cultures. […]

[3] = tested on: non-transformed B. napus plants; experiment: Seed germination in the presence of kanamycin or imazapyr (oilseed rape); type: in vivo, Brassica napus; conditions: B. napus seeds on Nitsch agar medium
Description: Seed germination in the presence of kanamycin or imazapyr: A discriminatory dose level of Nitsch (Nitsch, Nicotiana. Phytomorphology 1969; 19, 389-404) agar medium containing 150 mg/L kanamycin or 0.3 μM imazapyr inhibiting the growth of non-transformed plants was determined. Surface sterilized seeds of non-transgenic, and TM B. napus plants were planted on either medium. Sensitive seedlings stopped growing within 10 days forming only short roots and cotyledons, while resistant seedlings formed long roots and true leaves and continued their growth. The segregation ratio of non-transgenic to TM of each line was calculated. Resistant/dwarfed seedlings were grown to maturity in soil and the plants were analyzed for AHAS resistance and for ahas^R and Δgai insert by PCR, as described above.
Competition of TM transgenic vs. non-transgenic Brassica napus plants and self competition of each alone: The competitive interactions between the TM transgenic vs. non-transgenic Brassica napus plants were assessed in replicated greenhouse experiments. In the first experiment seeds obtained from the selfed homozygous TM lines T1-J9-4 and -6 were used to grow the TM plants in mixed cultures with the non-transgenic plants in a 1:1 TM/WT ratio. […]

[4] = tested on: non-transgenic B. napus; experiment: Rooting of regenerated plantlets in the presence of kanamycin; type: in vivo, Brassica napus; conditions: root formation of regenerated B. napus plantlets
Excerpt: Transformation of oilseed rape (B. napus cv. Westar): The Agrobacterium tumefaciens-mediated transformation protocol of Moloney, et al (Plant Cell Reports 1989; 8,238-242) using excised cotyledonary petioles of B. napus cv. Westar seedlings was followed with some modifications. Excised cotyledons of axenic B. napus cv. Westar seedlings were inoculated by dipping the cut end of a 2 mm petiole in a suspension of A. tumefaciens strain EHA105 or EHA 101 containing the same TM 1 construct described in detail in Example 1. Non-transformed cotyledons served as negative controls. After co-cultivation for 2.5 days, the cotyledons were regenerated on Murashige-Skoog (MS) medium containing 500 mg/L carbenicillin to kill A. tumefaciens and 20 mg/L kanamycin as the primary plant selectable marker. Some healthy calli developed on the cut petioles and regenerated into green shoots which were then sub-cultured onto shoot elongation medium containing 300 mg/L carbenicillin and either 20 mg/L kanamycin or 0.2 μM imazapyr herbicide as secondary selectable marker of the putative transformants. The shoots were then rooted, potted, and transferred to the greenhouse to grow flower and set seed. The putative transformants were tested by PCR (FIG. 5) and by AHAS enzymatic assay (as described in Example 1 herein above) (FIG. 6) to confirm TM transformation. […]

[5] = tested on: Δgai-transformed male sterile tobacco plants; type: in vivo, Nicotiana tabacum; conditions: kinetin foliar spray; normal fertilization and seed development
Excerpt: Seed production on Δgai male sterile plants: The Δgai effect on pollen production is not irreversible: treatment of plants with cytokinins results in plants producing fertile pollen, and capable of self fertilization. Hemizygous imazapyr resistant and semi-dwarf primary TM tobacco transformants (lines 7, 8, and 10) were transferred to soil and grown to flowering. […] The chemicals were in an aqueous solution containing 0.1% (v/v) Tween 20 surfactant. The control group received the surfactant solution only, or none at all. All applications were made through foliar spray every other day for 2 weeks. Female fertility was assessed by backcrossing wild type pollen donors were backcrossed to one plant from each line without kinetin application (FIG. 4). At maturity, the capsules formed on each plant were counted and the dry weight of seed set of up to 5 capsules per each plant was measured. Normal seed set was observed.
Anthers were collected from three flowers per plant. A minimum of three plants per biotype were analyzed. Pollen viability was scored by staining the pollen with cotton blue stain [Phillips, R. L. in G. Clark, ed. […]
Floral bud and pistil development of the TM transgenic plants were similar to that of wild type plants. […] Pollen viability, scored by staining tests, of these restored lines was >93% compared to approximately 0% of non-treated plants (FIG. 4). […]

**Q.** For `CP(=O)(O)CCC(N)C(=O)O` (stereo not drawn) [glufosinate], which “Control of red rice” value [1] is on record?
**A.** easily controlled

**Q.** With `CC(C)C1(C)N=C(c2ncccc2C(=O)O)NC1=O` (stereo not drawn) [imazapyr] as the compound, how does the “Discriminatory dose level inhibiting the growth of non-transformed plants” value [2] read?
**A.** 0.3 µM

**Q.** For `NC[C@H]1O[C@H](O[C@H]2[C@H](O)[C@@H](O[C@H]3O[C@H](CO)[C@@H](O)[C@H](N)[C@H]3O)[C@H](N)C[C@@H]2N)[C@H](O)[C@@H](O)[C@@H]1O` [kanamycin], which “Discriminatory dose level inhibiting the growth of non-transformed plants” value [3] is on record?
**A.** 150 mg/L

**Q.** And the “Discriminatory dose level inhibiting the growth of non-transformed plants” value [2]?
**A.** 85.8 µM

**Q.** And the “Kanamycin concentration which inhibits the non-transgenics” value [4]?
**A.** 20 mg/L

**Q.** For `c1coc(CNc2ncnc3[nH]cnc23)c1` [kinetin], which “Restoration of fertility of male sterile TM transgenic plants” value [5] is on record?
**A.** restored the fertility

Reference: patent publication US7612255B2, “Transgenic plants for mitigating introgression of genetically engineered genetic traits” (priority 1999, dated 2009)
